Test system: NOMO1
Test: cell viability relative to DMSO control; higher = less cytotoxic
Conditions: 48 h
How it was run: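 NOMO1 or SEM cells were plated at 500 cells/well and P12-Ichikawa cells at 1000 cells/well in 1536-well plates (5 μl), after each leukemia line had been adapted for at least four passages in each medium. Pin dosing delivered library compounds in DMSO at 11 threefold concentrations, 47 μM to 0.79 nM. CellTiter-Glo One luminescence was read after 48 h at 37°C. Viability is reported as a per-plate percentage of DMSO wells, with cell-free wells as background.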

[1] = HPLM + 10% dialyzed FBS, 0.000781 µM
[2] = HPLM + 10% dialyzed FBS, 0.00234 µM
[3] = HPLM + 10% dialyzed FBS, 0.00702 µM
[4] = HPLM + 10% dialyzed FBS, 0.0211 µM
[5] = HPLM + 10% dialyzed FBS, 0.0632 µM
[6] = HPLM + 10% dialyzed FBS, 0.19 µM
[7] = HPLM + 10% dialyzed FBS, 0.569 µM
[8] = HPLM + 10% dialyzed FBS, 1.71 µM
[9] = HPLM + 10% dialyzed FBS, 5.12 µM
[10] = HPLM + 10% dialyzed FBS, 15.4 µM
[11] = HPLM + 10% dialyzed FBS, 46.1 µM
[12] = RPMI 5 mM glucose + 10% FBS, 0.000781 µM
[13] = RPMI 5 mM glucose + 10% FBS, 0.00234 µM
[14] = RPMI 5 mM glucose + 10% FBS, 0.00702 µM
[15] = RPMI 5 mM glucose + 10% FBS, 0.0211 µM
[16] = RPMI 5 mM glucose + 10% FBS, 0.0632 µM
[17] = RPMI 5 mM glucose + 10% FBS, 0.19 µM
[18] = RPMI 5 mM glucose + 10% FBS, 0.569 µM
[19] = RPMI 5 mM glucose + 10% FBS, 1.71 µM
[20] = RPMI 5 mM glucose + 10% FBS, 5.12 µM
[21] = RPMI 5 mM glucose + 10% FBS, 15.4 µM
[22] = RPMI 5 mM glucose + 10% FBS, 46.1 µM
[23] = RPMI 5 mM glucose + 10% dialyzed FBS, 0.000781 µM
[24] = RPMI 5 mM glucose + 10% dialyzed FBS, 0.00234 µM
[25] = RPMI 5 mM glucose + 10% dialyzed FBS, 0.00702 µM
[26] = RPMI 5 mM glucose + 10% dialyzed FBS, 0.0211 µM
[27] = RPMI 5 mM glucose + 10% dialyzed FBS, 0.0632 µM
[28] = RPMI 5 mM glucose + 10% dialyzed FBS, 0.19 µM
[29] = RPMI 5 mM glucose + 10% dialyzed FBS, 0.569 µM
[30] = RPMI 5 mM glucose + 10% dialyzed FBS, 1.71 µM
[31] = RPMI 5 mM glucose + 10% dialyzed FBS, 5.12 µM
[32] = RPMI 5 mM glucose + 10% dialyzed FBS, 15.4 µM
[33] = RPMI 5 mM glucose + 10% dialyzed FBS, 46.1 µM

Compound: CCC[C@@H]1C[C@@H](C(=O)N[C@@H]([C@H]2O[C@H](SC)[C@H](O)[C@@H](O)[C@H]2O)[C@@H](C)O)N(C)C1.Cl
- cell viability [1]: 103%
- cell viability [2]: 121%
- cell viability [3]: 123%
- cell viability [4]: 122%
- cell viability [5]: 125%
- cell viability [6]: 128%
- cell viability [7]: 110%
- cell viability [8]: 100%
- cell viability [9]: 79%
- cell viability [10]: 96%
- cell viability [11]: 68.8%
- cell viability [12]: 129%
- cell viability [13]: 121%
- cell viability [14]: 107%
- cell viability [15]: 111%
- cell viability [16]: 114%
- cell viability [17]: 111%
- cell viability [18]: 124%
- cell viability [19]: 103%
- cell viability [20]: 111%
- cell viability [21]: 124%
- cell viability [22]: 111%
- cell viability [23]: 118%
- cell viability [24]: 112%
- cell viability [25]: 119%
- cell viability [26]: 105%
- cell viability [27]: 119%
- cell viability [28]: 109%
- cell viability [29]: 111%
- cell viability [30]: 108%
- cell viability [31]: 107%
- cell viability [32]: 104%
- cell viability [33]: 98%

Compound: C[N]1C=NC=C1[C@@](N)(C2=CC=C(Cl)C=C2)C3=CC=C4N(C)C(=O)\C=C(\C5=CC=CC(=C5)Cl)C4=C3
- cell viability [1]: 108%
- cell viability [2]: 98.5%
- cell viability [3]: 112%
- cell viability [4]: 129%
- cell viability [5]: 91.5%
- cell viability [6]: 95.4%
- cell viability [7]: 84.9%
- cell viability [8]: 83.4%
- cell viability [9]: 76.2%
- cell viability [10]: 73.5%
- cell viability [11]: 47.2%
- cell viability [12]: 100%
- cell viability [13]: 95.6%
- cell viability [14]: 95.5%
- cell viability [15]: 93.2%
- cell viability [16]: 102%
- cell viability [17]: 94.2%
- cell viability [18]: 90.3%
- cell viability [19]: 84.8%
- cell viability [20]: 85.4%
- cell viability [21]: 82.6%
- cell viability [22]: 52.8%
- cell viability [23]: 112%
- cell viability [24]: 111%
- cell viability [25]: 121%
- cell viability [26]: 106%
- cell viability [27]: 110%
- cell viability [28]: 97.3%
- cell viability [29]: 97.1%
- cell viability [30]: 87.7%
- cell viability [31]: 80.9%
- cell viability [32]: 67.4%
- cell viability [33]: 41.7%

Compound: Cc1nc(Nc2ncc(C(=O)Nc3c(C)cccc3Cl)s2)cc(N2CCN(CCO)CC2)n1
- cell viability [1]: 90.9%
- cell viability [2]: 104%
- cell viability [3]: 102%
- cell viability [4]: 99.9%
- cell viability [5]: 107%
- cell viability [6]: 107%
- cell viability [7]: 113%
- cell viability [8]: 95.2%
- cell viability [9]: 83.9%
- cell viability [10]: 85.6%
- cell viability [11]: 71.9%
- cell viability [12]: 104%
- cell viability [13]: 102%
- cell viability [14]: 106%
- cell viability [15]: 101%
- cell viability [16]: 105%
- cell viability [17]: 105%
- cell viability [18]: 117%
- cell viability [19]: 110%
- cell viability [20]: 100%
- cell viability [21]: 89.3%
- cell viability [22]: 80.3%
- cell viability [23]: 101%
- cell viability [24]: 94.5%
- cell viability [25]: 102%
- cell viability [26]: 92.1%
- cell viability [27]: 105%
- cell viability [28]: 94.3%
- cell viability [29]: 106%
- cell viability [30]: 96.2%
- cell viability [31]: 81%
- cell viability [32]: 75.9%
- cell viability [33]: 75.9%

Compound: CN1CCCN(C(=O)c2cccc(-c3ccc(/C=C4/C(=O)Nc5ccc(Cl)cc54)o3)c2)CC1
- cell viability [1]: 134%
- cell viability [2]: 118%
- cell viability [3]: 120%
- cell viability [4]: 124%
- cell viability [5]: 112%
- cell viability [6]: 102%
- cell viability [7]: 109%
- cell viability [8]: 103%
- cell viability [9]: 91.8%
- cell viability [10]: 96.7%
- cell viability [11]: 66.1%
- cell viability [12]: 124%
- cell viability [13]: 107%
- cell viability [14]: 108%
- cell viability [15]: 110%
- cell viability [16]: 98.3%
- cell viability [17]: 109%
- cell viability [18]: 94.4%
- cell viability [19]: 96.1%
- cell viability [20]: 99.4%
- cell viability [21]: 85.8%
- cell viability [22]: 47.4%
- cell viability [23]: 111%
- cell viability [24]: 112%
- cell viability [25]: 109%
- cell viability [26]: 107%
- cell viability [27]: 111%
- cell viability [28]: 109%
- cell viability [29]: 104%
- cell viability [30]: 96.2%
- cell viability [31]: 85.6%
- cell viability [32]: 94.5%
- cell viability [33]: 60%

Compound: O=C1NC(=O)[C@@H](c2cn3c4c(cccc24)CCC3)[C@@H]1c1c[nH]c2ccccc12
- cell viability [1]: 95.9%
- cell viability [2]: 99.3%
- cell viability [3]: 98.2%
- cell viability [4]: 104%
- cell viability [5]: 107%
- cell viability [6]: 89.3%
- cell viability [7]: 89.8%
- cell viability [8]: 62.9%
- cell viability [9]: 29.7%
- cell viability [10]: 36.4%
- cell viability [11]: 20.6%
- cell viability [12]: 104%
- cell viability [13]: 116%
- cell viability [14]: 115%
- cell viability [15]: 99.5%
- cell viability [16]: 108%
- cell viability [17]: 104%
- cell viability [18]: 110%
- cell viability [19]: 68.6%
- cell viability [20]: 21.1%
- cell viability [21]: 20.8%
- cell viability [22]: 20.5%
- cell viability [23]: 93.1%
- cell viability [24]: 91.3%
- cell viability [25]: 96.2%
- cell viability [26]: 98.7%
- cell viability [27]: 106%
- cell viability [28]: 98.3%
- cell viability [29]: 114%
- cell viability [30]: 80%
- cell viability [31]: 22.4%
- cell viability [32]: 28.5%
- cell viability [33]: 29%

Source: the supplement of paper PMC11451515
